Measurements reported in patent US10006009B2, “Codon-optimized gene for mutated shrimp luciferase and method for use thereof” (JNC CORPORATION, priority 2013, dated 2018).
Entries after “also recorded” stand apart in the source; their conditions may differ.

Columns and labels:
Assay type in all cases: biochemical
purified nanoKAZ = target: T1, purified nanoKAZ (Oplophorus gracilirostris, UniProt Q9GV45, A31E/A60N/A81I/F95D/I117V/K70R/L54V/L99Q/M102K/N193R/P142E/Q151K/Q38R/Q45L/V71I/Y165I); assay: Emission spectra by purified nanoKAZ using coelenterazine analogues; conditions: purified nanoKAZ 3 μg, substrate 5 μg, 22-25° C.
T1 construct: histidine tag (6 His) (N, cleaved yes); ZZ domain (N, cleaved yes); made in house; host or cells: Escherichia coli BL21
T1 sequence (Q9GV45 other isoform, or with tags, fused parts or gaps with the stated changes): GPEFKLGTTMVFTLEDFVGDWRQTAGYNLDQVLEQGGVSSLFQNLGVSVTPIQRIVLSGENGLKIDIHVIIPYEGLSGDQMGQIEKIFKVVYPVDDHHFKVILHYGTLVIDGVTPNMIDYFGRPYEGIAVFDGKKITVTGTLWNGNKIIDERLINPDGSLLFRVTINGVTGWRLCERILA
Method: The luminescence reaction was started by addition of a solution of substrate coelenterazine (5 μg/5 μL) in ethanol to a solution of nanoKAZ (3 μg) in 30 mM Tris-HCl (pH 7.6) containing 500 μl of 10 mM EDTA. The luminescence spectra were measured in a quartz cell with an optical path length of 10 mm, with a fluorescence spectrophotometer (manufactured by JASCO Corp., FP-6500) with the excitation light source turned off to correct for the spectra. The measurement conditions used were as follows: band width: 20 nm, response: 0.5 second, scan speed: 2000 nm/min at 22-25° C. The maximum intensity of luminescence (λmax, nm) and half bandwidth (nm) were determined from the luminescence spectra measured, which are summarized in TABLE 8.

[1] = target: T2, purified codon-optimized nanoKAZ domain protein (Oplophorus gracilirostris, UniProt Q9GV45, A31E/A60N/A81I/F95D/I117V/K70R/L54V/L99Q/M102K/N193R/P142E/Q151K/Q38R/Q45L/V71I/Y165I); assay: Substrate specificity of purified nanoKAZ; conditions: purified nanoKAZ 0.03 μg, 1 μg substrate, coelenterazine = 1.0
T2 construct: histidine tag (6 His) (N, cleaved yes); ZZ domain (N, cleaved yes); made in house; host or cells: Escherichia coli BL21
T2 sequence (Q9GV45 other isoform, or with tags, fused parts or gaps with the stated changes): as above
Method: The luminescence reaction was started by addition of 5 μl (0.03 μg) of the purified enzyme solution obtained in EXAMPLE 7 to 100 μl of 50 mM Tris-HCl (pH 7.6)-10 mM EDTA (Wako Pure Chemical Industries, Ltd.) containing 1 μg of coelenterazine (manufactured by JNC) or its analogues. The luminescence activity was measured with a luminometer (manufactured by Atto Co.: AB2200) for 60 seconds. The maximum intensity of luminescence (Imax) and the level integrated for 60 seconds were represented as relative light units (rlu).
The luminescence activity of the purified codon-optimized nanoKAZ domain was measured in accordance with the method described in EXAMPLE 8. […] The results obtained using the purified codon-optimized nanoKAZ as the enzyme solution are in good agreement with the results found by using the culture cell solution as the enzyme solution.

[2] = target: T3, codon-optimized nanoKAZ domain protein (Oplophorus gracilirostris, UniProt Q9GV45, A31E/A60N/A81I/F95D/I117V/K70R/L54V/L99Q/M102K/N193R/P142E/Q151K/Q38R/Q45L/V71I/Y165I); assay: Substrate specificity and luminescence pattern of nanoKAZ secreted into culture medium; conditions: for Relative luminescence activity integrated (1 min) / Relative maximum luminescence intensity (Imax): culture medium with secreted nanoKAZ as enzyme, coelenterazine = 1.0; for luminescence pattern: FIG. 4
T3 construct: expressed in transfected cells; host or cells: CHO-K1, HeLa or COS-1 cells transfected with pcDNA3-nanoKAZ or pcDNA3-GLsp-nanoKAZ
T3 sequence (Q9GV45 28-196 with tags or gaps with the stated changes limits assumed): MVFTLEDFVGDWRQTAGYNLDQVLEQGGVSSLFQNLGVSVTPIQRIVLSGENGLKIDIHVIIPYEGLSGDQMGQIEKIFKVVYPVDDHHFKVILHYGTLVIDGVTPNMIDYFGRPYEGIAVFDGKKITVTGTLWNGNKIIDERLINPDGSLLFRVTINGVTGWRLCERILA
Method: The luminescence reaction was started by addition of 5 μL of the enzyme solution for assay obtained in EXAMPLE 3 to 100 μL of 50 mM Tris-HCl (pH 7.6)-10 mM EDTA (Wako Pure Chemical Industries, Ltd.) containing 0.5 μg of coelenterazine (manufactured by JNC Corp.). The luminescence activity was measured for 60 seconds with a luminometer (manufactured by Atto Co.: AB2200). The maximum intensity of luminescence (Imax) and the luminescence activity integrated for 60 seconds were represented as relative light units (rlu). On the other hand, the luminescence activity of firefly luciferase was used as an internal standard to confirm the efficiency of transfection. Five microliters of the enzyme solution for assay obtained in EXAMPLE 3 was added to 100 μL of the enzyme assay solution (manufactured by Promega Corp.) to start the luminescence reaction. The luminescence activity was measured with a luminometer (manufactured by Atto Co.: AB2200) by integration of luminescence for 10 seconds, which was shown as relative light units (rlu). […] While the transfection efficiencies vary in depending upon cell types, the transfection efficiencies of pcDNA3-nanoKAZ and pcDNA3-GLsp-nanoKAZ are almost the same. The results obtained by measuring the luminescence activity of CHO-K1 cells, HeLa cells and COS-1 cells in culture medium and cells are shown in TABLE 4. Evidently, pcDNA3-nanoKAZ without a signal peptide sequence for secretion was secreted comparably or more efficiently than pcDNA3-GLsp-nanoKAZ.
Coelenterazine analogues used in the substrate specificity experiments were synthesized by the methods described in the respective papers. More specifically, bis-coelenterazine, furimazine and C2-coelenterazine analogue were synthesized by the methods described in Nakamura et al. (1997) Tetrahedron Lett. 38:6405-6406, Hall et al. (2012) ACS Chem. Biol. […] and Inouye et al. (2010) Anal. Biochem. 407: 247-252, respectively. Using as an enzyme solution for coelenterazine or its analogues the culture medium, into which nanoKAZ was secreted as described in EXAMPLE 4, the luminescence activity was measured. Among coelenterazine analogues, the relative maximum intensity of luminescence for h-, bis-, 3me- and 3meo-coelenterazines was at least 10-fold higher and the relative luminescence activity integrated for 1 minute of h- and bis-coelenterazines was at least 10-fold higher, than the others. These luminescence patterns are illustrated in FIG. 4.

| Compound | Half bandwidth FWHM (purified nanoKAZ) [nm] | Maximum wavelength λmax (purified nanoKAZ) [nm] | Maximum luminescence intensity (Imax) [1] | Relative luminescence activity integrated (1 min) [1] | Relative luminescence activity integrated (1 min) [2] | Relative maximum luminescence intensity (Imax) [2] | luminescence pattern [2] | activity relative to furimazine ([2]; higher than that of furimazine) |
| --- | --- | --- | --- | --- | --- | --- | --- | --- |
| Cc1ccc(Cc2nc3c(Cc4ccccc4)[nH]c(-c4ccc(O)cc4)cn-3c2=O)cc1 [me-Coelenterazine] | 75 | 460 | 4.2 | 1.3 | 3.0 | 5.2 |  |  |
| O=c1c(Cc2ccc(C(F)(F)F)cc2)nc2c(Cc3ccccc3)[nH]c(-c3ccc(O)cc3)cn1-2 [cf3-Coelenterazine] | 71 | 454 | 4.7 | 1.4 | 2.4 | 5.2 |  |  |
| O=c1c(Cc2ccco2)nc2c(Cc3ccccc3)[nH]c(-c3ccccc3)cn1-2 [Furimazine] | 73 | 452 | 6.8 | 5.5 | 5.3 | 4.8 | did not show the rapid-decay luminescence patterns |  |
| αmeh-Coelenterazine | 73 | 462 | 0.1 | 0.1 | 0.1 | 0.1 |  |  |
| n-Coelenterazine | 71 | 454 | 4.1 | 1.2 | 3.3 | 4.9 |  |  |
| COc1ccc(Cc2nc3c(Cc4ccccc4)[nH]c(-c4ccc(O)cc4)cn-3c2=O)cc1 [meo-Coelenterazine] | 73 | 458 | 7.7 | 3.4 | 6.3 | 8.9 |  |  |
| Oc1ccc(-c2cn3c(O)c(Cc4ccccc4)nc3c(Cc3ccccc3)n2)cc1 [h-Coelenterazine] | 71 | 455 | 19.7 | 12.5 | 11.1 | 17.1 |  |  |
| COc1cccc(Cc2nc3c(Cc4ccccc4)[nH]c(-c4ccc(O)cc4)cn-3c2=O)c1 [3meo-Coelenterazine] | 71 | 458 | 11.1 | 6.6 | 8.2 | 11.6 |  |  |
| bis-Coelenterazine | 73 | 453 | 13.5 | 10.1 | 11.5 | 10.8 | did not show the rapid-decay luminescence patterns; also recorded: continuous emission without decay of luminescence | at least 2 fold |
| Oc1ccc(Cc2nc3c(Cc4ccccc4)nc(-c4ccc(O)cc4)cn3c2O)cc1 [Coelenterazine (CTZ), Coelenterazine] | 73 | 457 | 1.0 | 1.0 | 1.0 | 1.0 |  |  |
| i-Coelenterazine | 73 | 457 | 2.9 | 0.8 | 2.0 | 3.3 |  |  |
| Cc1cccc(Cc2nc3c(Cc4ccccc4)[nH]c(-c4ccc(O)cc4)cn-3c2=O)c1 [3me-Coelenterazine] | 73 | 458 | 10.3 | 4.2 | 7.9 | 11.5 |  |  |
| O=c1c(Cc2cccc(O)c2)nc2c(Cc3ccccc3)[nH]c(-c3ccc(O)cc3)cn1-2 [3iso-Coelenterazine] | 75 | 460 | 1.1 | 0.9 | 1.4 | 1.5 | did not show the rapid-decay luminescence patterns |  |
| et-Coelenterazine | 75 | 458 | 2.4 | 0.5 | 2.8 | 4.4 |  |  |
